In patent US9028845B2, “Chimeric immunomodulatory compounds and methods of using the same-IV” (Dynavax Technologies Corporation, priority 2001, dated 2015):
Marks after values point to notes of the source that are not given here.

Experiments:
human PBMCs = assay: Human PBMC cytokine response assay (IFN-γ and IFN-α in cell-free medium by ELISA), with or without cPLGA; type: cell-based;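 on IFN-α (pg/ml) mean: 20 µg/mL compound for 24 hours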;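 on IFN-γ (pg/ml) mean: 20 µg/mL compound for 24 hours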
PBMCs = assay: Human PBMC proliferation assay (3H-thymidine incorporation); type: cell-based; settings: Experiment A; for mean cpm: 2 μg/ml
mouse lung = assay: Induction of immune-associated genes in the mouse lung after intranasal treatment (quantitative PCR); type: in vivo, BALB/c mice; settings: 20 ug intranasal, 6 hrs
Procedure: The genes evaluated included genes encoding cytokines, chemokines, cell surface molecules, transcription factors, metalloproteases, and other molecules. The study was performed at Northview Pacific Laboratories (Hercules, Calif.) with 6-8 week old female BALB/c mice from Jackson Labs (Bar Harbor, Me.). […] Therefore, at 6 hrs the lungs were harvested and snap-frozen in liquid nitrogen and stored at −80° C. for later use. Total RNA was isolated using RNeasy mini kits (Qiagen Inc., Valencia, Calif.). The RNA samples were DNAse-treated (Roche Diagnostics, Mannheim, Germany) and converted into cDNA using Superscript II Rnase H-Reverse Transcriptase (Invitrogen, Rockville Md.) as described in Scheerens et al., 2001, Eur. J. of Immunology 31:1465-74. The cDNA samples were pooled per group and in each pooled sample the expression of mRNA of 75 genes was measured using real-time quantitative PCR (ABI Prism 5700, Perkin Elmer Applied Biosystems) and syber green (Qiagen Inc.). In addition to the genes of interest, in each sample the mRNA expression of a housekeeping gene was measured (HPRT or ubiquitin). In order to correct for the amount of RNA in each sample, all data were calculated relative to the expression of the housekeeping gene.

mice = assay: Serum cytokines (IL-12 p40, IL-6, TNF-α) after subcutaneous injection in mice; type: in vivo; settings: 20 ug subcutaneous, blood 2 hours later
Procedure: Blood was collected 2 hours later. For the LPS positive control group, mice were injected intraperitoneally with a 200 ul volume, and blood was collected 1.5 hours later (i.e., at the peak of LPS induced TNF-α activity). The blood was clotted and the serum was prepared and stored at −80° C. until assayed. Serum cytokines were assayed using Biosource cytoscreen kits for TNF-α and Pharmingen antibody pairs for mIL-6 and mIL-12. All samples were assayed in duplicate.

[1] = tested on: hepatitis B surface antigen (HBsAg); settings: in vivo
CD19+ B cells = assay: Human B cell proliferation assay (3H-thymidine incorporation); settings: 2 μg/ml; for cpm1 / cpm2 / cpm3 / mean cpm / mean of both: B cells
[2] = Water solubility of spacer precursor (dialcohol form); type: physicochemical; settings: tested as dialcohol precursor of the dodecyl spacer
Description: Thus, the definition of spacers excludes microcarriers or nanocarriers. […] The form of the spacer moiety used for testing its water solubility is generally its most closely related unactivated and unprotected spacer precursor molecule. For example, C-19 contains a spacer moiety including a dodecyl group with phosphorothioate diester linkages at the C-1 and C-12 positions, thereby connecting the spacer moiety to the nucleic acid moieties. […] These higher water solubility spacers include, without limitation, propane 1,3 diol; glycerol; butane-1,4-diol; pentane-1,5-diol; hexane-1,6-diol; triethylene glycol, tetraethylene glycol and HEG.

[3] = donor 28066, 20 ug/ml, 24 h, + PLGA = premixed with 100 μg/ml cPLGA
[4] = donor 28067, 20 ug/ml, 24 h, + PLGA = premixed with 100 μg/ml cPLGA
[5] = donor 28068, 20 ug/ml, 24 h, + PLGA = premixed with 100 μg/ml cPLGA
[6] = mean of Donors 1-2, 20 μg/ml, 24 h
[7] = mean of Donors 9-12, 20 μg/ml, 24 h
[8] = mean of donors 28065-28068, 20 ug/ml, 24 h, + PLGA = premixed with 100 μg/ml cPLGA
[9] = mean of donors 28185-28188, Table 15

5′-TCGTCGA-3′- C3-5′-ACGTTCG-3′-C3-5′-AGATGAT-3′ [Compound C-9]
IFN-α (pg/ml) Donor 1 (human PBMCs; Donor 1, 20 μg/ml, 24 h): 142 pg/mL | IFN-γ (pg/ml) Donor 1 (human PBMCs; Donor 1, 20 μg/ml, 24 h): 2157 pg/mL | IFN-α (pg/ml) Donor 2 (human PBMCs; Donor 2, 20 μg/ml, 24 h): 0 pg/mL | IFN-γ (pg/ml) Donor 2 (human PBMCs; Donor 2, 20 μg/ml, 24 h): 171 pg/mL | IFN-α Donor 9 (human PBMCs; Donor 9, 20 μg/ml, 24 h): 8 | IFN-γ Donor 9 (human PBMCs; Donor 9, 20 μg/ml, 24 h): 134 | IFN-α Donor 10 (human PBMCs; Donor 10, 20 μg/ml, 24 h): 10 | IFN-γ Donor 10 (human PBMCs; Donor 10, 20 μg/ml, 24 h): 7 | IFN-α Donor 11 (human PBMCs; Donor 11, 20 μg/ml, 24 h): 1 | IFN-γ Donor 11 (human PBMCs; Donor 11, 20 μg/ml, 24 h): 56 | IFN-α Donor 12 (human PBMCs; Donor 12, 20 μg/ml, 24 h): 15 | IFN-γ Donor 12 (human PBMCs; Donor 12, 20 μg/ml, 24 h): 30 | IFN-α (human PBMCs; Table 9, donor 28089): 10 pg/mL | IFN-γ (human PBMCs; Table 9, donor 28089): 12 pg/mL | IFN-α (human PBMCs; Table 9, donor 28090): 67 pg/mL | IFN-γ (human PBMCs; Table 9, donor 28090): 7 pg/mL | IFN-α mean (human PBMCs; Table 9, mean of donors): 39 pg/mL | IFN-γ mean (human PBMCs; Table 9, mean of donors): 10 pg/mL | IFN-α (human PBMCs; Table 11, donor 28042): 39 pg/mL | IFN-γ (human PBMCs; Table 11, donor 28042): 691 pg/mL | IFN-α (human PBMCs; Table 11, donor 28043): 0 pg/mL | IFN-γ (human PBMCs; Table 11, donor 28043): 268 pg/mL | IFN-α (human PBMCs; Table 11, donor 28044): 11 pg/mL | IFN-γ (human PBMCs; Table 11, donor 28044): 590 pg/mL | IFN-α (human PBMCs; Table 11, donor 28045): 64 pg/mL | IFN-γ (human PBMCs; Table 11, donor 28045): 1306 pg/mL | IFN-α mean (human PBMCs; Table 11, mean of donors): 29 pg/mL | IFN-γ mean (human PBMCs; Table 11, mean of donors): 714 pg/mL | IFN-α (human PBMCs; Table 13, donor 28156): 26 pg/mL | IFN-γ (human PBMCs; Table 13, donor 28156): 1162 pg/mL | IFN-α (human PBMCs; Table 13, donor 28157): 142 pg/mL | IFN-γ (human PBMCs; Table 13, donor 28157): 729 pg/mL | IFN-α (human PBMCs; Table 13, donor 28158): 78 pg/mL | IFN-γ (human PBMCs; Table 13, donor 28158): 192 pg/mL | IFN-α (human PBMCs; Table 13, donor 28159): 20 pg/mL | IFN-γ (human PBMCs; Table 13, donor 28159): 329 pg/mL | IFN-α mean (human PBMCs; Table 13, mean of donors): 67 pg/mL | IFN-γ mean (human PBMCs; Table 13, mean of donors): 603 pg/mL | IFN-γ (pg/ml) 28065 (human PBMCs; donor 28065 (high background), 20 ug/ml, 24 h, + PLGA = premixed with 100 μg/ml cPLGA, 1000 = outside assay limits): 1000 pg/mL | IFN-α (pg/ml) 28065 (human PBMCs; donor 28065, 20 ug/ml, 24 h, + PLGA = premixed with 100 μg/ml cPLGA): 13 pg/mL | IFN-α (pg/ml) 28066 (human PBMCs; [3]): 0 pg/mL | IFN-γ (pg/ml) 28066 (human PBMCs; [3]): 8 pg/mL | IFN-α (pg/ml) 28067 (human PBMCs; [4]): 22 pg/mL | IFN-γ (pg/ml) 28067 (human PBMCs; [4]): 57 pg/mL | IFN-α (pg/ml) 28068 (human PBMCs; [5]): 64 pg/mL | IFN-γ (pg/ml) 28068 (human PBMCs; [5]): 510 pg/mL | IFN-a (human PBMCs; donor 28185, Table 15): 25 pg/mL | IFN-g (human PBMCs; donor 28185, Table 15): 189 pg/mL | IFN-a (human PBMCs; donor 28186, Table 15): 16 pg/mL | IFN-g (human PBMCs; donor 28186, Table 15): 24 pg/mL | IFN-a (human PBMCs; donor 28187, Table 15): 4 pg/mL | IFN-g (human PBMCs; donor 28187, Table 15): 95 pg/mL | IFN-a (human PBMCs; donor 28188, Table 15): 146 pg/mL | IFN-g (human PBMCs; donor 28188, Table 15): 11 pg/mL | IFN-α (pg/ml) mean (human PBMCs; [6]): 71 pg/mL | IFN-γ (pg/ml) mean (human PBMCs; [6]): 1164 pg/mL | IFN-α mean (human PBMCs; [7]): 8 | IFN-γ mean (human PBMCs; [7]): 56 | IFN-α (pg/ml) mean (human PBMCs; [8]): 25 pg/mL | IFN-γ (pg/ml) mean (human PBMCs; [8]): 394 pg/mL | IFN-a (pg/ml) mean (human PBMCs; [9]): 48 pg/mL | IFN-g (pg/ml) mean (human PBMCs; [9]): 80 pg/mL | IFN-a (pg/ml) ×2 (human PBMCs; mean ×2, Table 15): 95 pg/mL | IFN-g (pg/ml) ×4 (human PBMCs; mean ×4, Table 15): 319 pg/mL | cpm1 (PBMCs; Donor 146, 2 μg/ml): 55348 cpm | cpm2 (PBMCs; Donor 146, 2 μg/ml): 24857 cpm | cpm3 (PBMCs; Donor 146, 2 μg/ml): 39953 cpm | mean cpm (PBMCs; Donor 146 mean): 40053 cpm | cpm1 (PBMCs; Donor 147, 2 μg/ml): 88106 cpm | cpm2 (PBMCs; Donor 147, 2 μg/ml): 65413 cpm | cpm3 (PBMCs; Donor 147, 2 μg/ml): 90665 cpm | mean cpm (PBMCs; Donor 147 mean): 81395 cpm | mean of both (PBMCs; mean of Donors 146 and 147, 2 μg/ml): 60724 cpm | mRNA expression of IFN-alpha in the lung, in words (mouse lung): considerably higher mRNA expression of IFN-alpha | mRNA expression of immune-associated genes in the lung, in words (mouse lung; vs P-7 treated mice): potently induce the expression of a variety of genes | induction of serum IL-12 p40, IL-6 and TNF-α, in words (mice): induced IL-12 p40, IL-6, and TNF-α | Anti-HBsAg (mIU/ml) post-first, Mean [1]: 68 mIU/ml | Anti-HBsAg (mIU/ml) post-second, Mean [1]: 4135** mIU/ml | B cell proliferation, in words (CD19+ B cells; 48 h plus 8 h 3H-thymidine pulse): cause B cells to proliferate | cpm1 (CD19+ B cells; Donor 146, Experiment A): 35365 cpm | cpm2 (CD19+ B cells; Donor 146, Experiment A): 42705 cpm | cpm3 (CD19+ B cells; Donor 146, Experiment A): 45231 cpm | mean cpm (CD19+ B cells; Donor 146 mean, Experiment A): 41100 cpm | cpm1 (CD19+ B cells; Donor 147, Experiment A): 55543 cpm | cpm2 (CD19+ B cells; Donor 147, Experiment A): 49035 cpm | cpm3 (CD19+ B cells; Donor 147, Experiment A): 44985 cpm | mean cpm (CD19+ B cells; Donor 147 mean, Experiment A): 49854 cpm | cpm1 (CD19+ B cells; donor 121, Experiment B): 21938 cpm | cpm2 (CD19+ B cells; donor 121, Experiment B): 35400 cpm | cpm3 (CD19+ B cells; donor 121, Experiment B): 23877 cpm | mean cpm (CD19+ B cells; donor 121 mean, Experiment B): 27072 cpm | cpm1 (CD19+ B cells; donor 194, Experiment B): 13660 cpm | cpm2 (CD19+ B cells; donor 194, Experiment B): 16717 cpm | cpm3 (CD19+ B cells; donor 194, Experiment B): 17866 cpm | mean cpm (CD19+ B cells; donor 194 mean, Experiment B): 16081 cpm | mean of both (CD19+ B cells; mean of Donors 146 and 147, Experiment A): 45477 cpm | mean of both (CD19+ B cells; mean of donors 121 and 194, Experiment B): 21576 cpm

OCCCCCCCCCCCCO [1,12-dihydroxydodecane]
solubility [2]: < 5000 µg/mL
